The Km is the concentration of substrate that gives half-maximal velocity.

The target in one experiment is T1, RaNTT1 (Rozella allomycis, UniProt A0A075B2H2).
T1 construct: gene O9G_001541; PCR-amplified gene, N-terminal His10 tag, pET16b, in E. coli Rosetta2 DE3 pLysS cells
T1 sequence (A0A075B2H2 1-597): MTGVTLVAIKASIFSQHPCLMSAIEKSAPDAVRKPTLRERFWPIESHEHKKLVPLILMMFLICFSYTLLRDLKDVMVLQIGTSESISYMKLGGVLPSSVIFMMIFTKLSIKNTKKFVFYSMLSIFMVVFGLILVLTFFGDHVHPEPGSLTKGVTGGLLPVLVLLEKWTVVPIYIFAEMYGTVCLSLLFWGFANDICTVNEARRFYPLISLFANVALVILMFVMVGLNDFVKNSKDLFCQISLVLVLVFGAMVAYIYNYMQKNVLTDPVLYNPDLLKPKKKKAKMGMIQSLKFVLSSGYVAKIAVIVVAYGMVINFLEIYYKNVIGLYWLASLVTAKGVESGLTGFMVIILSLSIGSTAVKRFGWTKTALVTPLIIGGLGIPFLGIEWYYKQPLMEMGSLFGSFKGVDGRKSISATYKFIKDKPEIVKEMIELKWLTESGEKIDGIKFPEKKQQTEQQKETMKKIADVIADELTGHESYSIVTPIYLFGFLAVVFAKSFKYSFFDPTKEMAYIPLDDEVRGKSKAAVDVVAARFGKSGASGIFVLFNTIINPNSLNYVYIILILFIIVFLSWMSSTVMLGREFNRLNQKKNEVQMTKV
Briefly: competition with […]-ATP uptake in NTT-expressing E. coli. The experiment is classed as cell-based. To be noted: 50,000x excess unlabelled competitor; PBS.

Another experiment deals with T2, EcNTT1 (Encephalitozoon cuniculi, UniProt Q8SRA2).
T2 construct: gene NTT1; full-length, N-terminal His10 tag, pET16b, in E. coli Rosetta2 DE3 pLysS cells
T2 sequence (Q8SRA2 1-559): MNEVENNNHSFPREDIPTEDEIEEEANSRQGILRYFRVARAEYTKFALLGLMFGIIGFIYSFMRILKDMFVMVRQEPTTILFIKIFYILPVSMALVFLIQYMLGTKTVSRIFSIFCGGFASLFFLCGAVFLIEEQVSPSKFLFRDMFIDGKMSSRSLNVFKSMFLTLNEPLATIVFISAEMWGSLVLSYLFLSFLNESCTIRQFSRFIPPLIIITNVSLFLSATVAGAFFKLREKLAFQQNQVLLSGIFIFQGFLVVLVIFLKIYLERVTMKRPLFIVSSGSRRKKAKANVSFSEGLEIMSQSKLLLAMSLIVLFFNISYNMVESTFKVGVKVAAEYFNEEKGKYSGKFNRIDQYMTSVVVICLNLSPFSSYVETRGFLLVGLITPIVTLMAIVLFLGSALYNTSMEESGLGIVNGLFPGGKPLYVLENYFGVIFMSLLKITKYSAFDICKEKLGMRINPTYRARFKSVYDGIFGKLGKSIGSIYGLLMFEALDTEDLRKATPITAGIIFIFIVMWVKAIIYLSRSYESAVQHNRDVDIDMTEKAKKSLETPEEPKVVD
As to the kind of experiment: […]-nucleotide uptake by NTT-expressing E. coli, […] min. The experiment is classed as cell-based. The following applies: PBS; labelled compound.

The next experiment deals with AncNTTMic. The following applies: read-out: apparent Km; PBS; 32P-labelled ATP plus unlabelled ATP; labelled compound.
The subject of a further experiment is AncNTTRoz/Mic. To be noted: read-out: apparent Km; PBS; 32P-labelled ATP plus unlabelled ATP; labelled compound.

Consider `Nc1ncnc2c1ncn2[C@@H]1O[C@H](COP(=O)(O)OP(=O)(O)O)[C@@H](O)[C@H]1O` [ADP], for which the “residual [32P]-ATP uptake” value at RaNTT1 was “transport by R. allomycis RaNTT1 was strongly reduced only by cold ATP and ADP”.

Regarding `Nc1nc2c(ncn2[C@@H]2O[C@H](COP(=O)(O)OP(=O)(O)OP(=O)(O)O)[C@@H](O)[C@H]2O)c(=O)[nH]1` [GTP], the “[32P]-nucleotide uptake by NTT-expressing E. coli, 30 min” value on EcNTT1 was “GTP is transported at high levels for all of the Microsporidia NTTs”.

For the compound `Nc1ncnc2c1ncn2[C@@H]1O[C@H](COP(=O)(O)OP(=O)(O)OP(=O)(O)O)[C@@H](O)[C@H]1O` [ATP], the Km was determined as 1.9 ± 1.35 µM in the experiment with AncNTTMic and 0.8 ± 0.15 µM in the experiment on AncNTTRoz/Mic.

(Values after publication PMC5923384, “Transporter gene acquisition and innovation in the evolution of Microsporidia intracellular parasites” (Nature Communications, 2018).)
